These results are taken from US20240391931A1 (Bristol-Myers Squibb Company, priority 2021, published 2024).

Each structure is given as a SMILES string. pEC50, pIC50: −log10 of the molar value.

For one assay, the target named is T1, HER2 WT (Homo sapiens, UniProt P04626).
T1 construct: purchased ProQinase, Freiburg, Germany ERBB2 0108-0000-1
Nature of the assay: Enzymatic assay HER2 WT (method a). Particulars: [HER2 WT]=12.5 nM, [ATP]=25 μM, [Peptide 22]=1 μM. Format: biochemical. In outline: (§1)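 Initial rates over 0–3600 s, read as substrate-to-product conversion by capillary electrophoresis, were converted to percent inhibition and fitted with a variable-slope curve to give IC50. Conditions: EGFR WT 2 nM with 1 mM ATP; HER2 YVMA 5 nM or HER2 WT 12.5 nM, each with 25 μM ATP. All used 1 μM Peptide 22 in pH 7.5 HEPES/Mn/Mg buffer.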

Another assay deals with T2, EGFR WT (Homo sapiens, UniProt P00533).
T2 construct: purchased Thermo Fisher, Carlsbad, CA ERBB1 PR7295B
T2 sequence (P00533 25-1210): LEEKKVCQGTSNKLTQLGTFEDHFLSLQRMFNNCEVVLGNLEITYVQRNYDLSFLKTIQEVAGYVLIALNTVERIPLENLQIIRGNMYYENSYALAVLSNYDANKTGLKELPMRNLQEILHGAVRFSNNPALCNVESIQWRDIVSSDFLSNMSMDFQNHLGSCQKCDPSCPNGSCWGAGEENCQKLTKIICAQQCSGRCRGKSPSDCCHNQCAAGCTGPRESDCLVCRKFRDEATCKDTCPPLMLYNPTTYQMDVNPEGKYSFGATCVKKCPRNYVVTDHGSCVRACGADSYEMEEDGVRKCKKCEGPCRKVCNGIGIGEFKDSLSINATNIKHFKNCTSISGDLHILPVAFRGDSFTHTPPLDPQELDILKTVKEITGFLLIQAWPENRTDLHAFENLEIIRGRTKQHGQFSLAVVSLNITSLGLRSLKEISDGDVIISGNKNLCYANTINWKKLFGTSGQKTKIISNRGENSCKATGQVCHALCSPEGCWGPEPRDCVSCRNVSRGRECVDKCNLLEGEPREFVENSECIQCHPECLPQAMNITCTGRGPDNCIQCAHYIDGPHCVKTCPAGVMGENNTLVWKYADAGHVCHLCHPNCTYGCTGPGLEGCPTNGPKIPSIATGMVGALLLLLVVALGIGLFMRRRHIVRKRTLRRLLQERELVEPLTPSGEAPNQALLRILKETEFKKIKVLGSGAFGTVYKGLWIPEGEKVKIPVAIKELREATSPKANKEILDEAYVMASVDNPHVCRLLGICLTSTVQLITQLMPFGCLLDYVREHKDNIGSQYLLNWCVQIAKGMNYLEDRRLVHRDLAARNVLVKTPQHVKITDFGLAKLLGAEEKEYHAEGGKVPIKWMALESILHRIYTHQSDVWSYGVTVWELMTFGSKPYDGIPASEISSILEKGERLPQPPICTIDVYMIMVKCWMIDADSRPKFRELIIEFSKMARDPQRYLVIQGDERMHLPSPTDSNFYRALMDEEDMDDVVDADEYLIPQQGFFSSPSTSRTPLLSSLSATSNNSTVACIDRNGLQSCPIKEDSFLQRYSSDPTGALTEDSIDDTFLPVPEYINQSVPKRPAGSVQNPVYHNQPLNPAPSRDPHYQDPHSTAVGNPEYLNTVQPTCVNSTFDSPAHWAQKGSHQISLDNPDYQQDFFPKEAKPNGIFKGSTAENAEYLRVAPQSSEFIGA
Nature of the assay: Enzymatic assay EGFR WT (method c). Format: biochemical. Particulars: [EGFR WT]=2 nM, [ATP]=1 mM, [Peptide 22]=1 μM. An outline of the steps:
as §1

In a further assay the target is EGFR (Homo sapiens, UniProt P00533). Nature of the assay: EGFR signaling (pEGFR Tyr1068/total EGFR MSD) in A431 cells. Format: cell-based. Also on record: endogenous in cells; host or cells: A431, N87. Conditions: for pEC50: A431 cells, read-out: A431 pEGFR EC50; for Selectivity A431 EC50/BT474 EC50: ratio A431 pEGFR EC50 to BT474 pHER2 EC50; for Selectivity A431 EC50/HEKYVMA EC50: ratio A431 pEGFR EC50 to HEK YVMA pHER2 EC50. An outline of the steps:
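EC50 was fitted with variable Hill slope from MSD pTyr1068/total EGFR ratios, expressed as % DMSO control. A431 cells were starved overnight, then exposed 1.5 h to eight concentrations from 10 to 0.005 μM in 1% FBS before a 10-min 100 ng/mL EGF pulse.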

Another assay deals with HER2YVMA (Homo sapiens, UniProt P04626, INS775YVMA). The assay can be described thus: Enzymatic assay HER2YVMA (method b). Format: biochemical. Further details: purchased Viva biotech, Shanghai, China custom purification. Particulars: [HER2YVMA]=5 nM, [ATP]=25 μM, [Peptide 22]=1 μM. In outline:
as §1

EGFR, sequence (P00533 25-1210): as above
T1 sequence (P04626 23-1255): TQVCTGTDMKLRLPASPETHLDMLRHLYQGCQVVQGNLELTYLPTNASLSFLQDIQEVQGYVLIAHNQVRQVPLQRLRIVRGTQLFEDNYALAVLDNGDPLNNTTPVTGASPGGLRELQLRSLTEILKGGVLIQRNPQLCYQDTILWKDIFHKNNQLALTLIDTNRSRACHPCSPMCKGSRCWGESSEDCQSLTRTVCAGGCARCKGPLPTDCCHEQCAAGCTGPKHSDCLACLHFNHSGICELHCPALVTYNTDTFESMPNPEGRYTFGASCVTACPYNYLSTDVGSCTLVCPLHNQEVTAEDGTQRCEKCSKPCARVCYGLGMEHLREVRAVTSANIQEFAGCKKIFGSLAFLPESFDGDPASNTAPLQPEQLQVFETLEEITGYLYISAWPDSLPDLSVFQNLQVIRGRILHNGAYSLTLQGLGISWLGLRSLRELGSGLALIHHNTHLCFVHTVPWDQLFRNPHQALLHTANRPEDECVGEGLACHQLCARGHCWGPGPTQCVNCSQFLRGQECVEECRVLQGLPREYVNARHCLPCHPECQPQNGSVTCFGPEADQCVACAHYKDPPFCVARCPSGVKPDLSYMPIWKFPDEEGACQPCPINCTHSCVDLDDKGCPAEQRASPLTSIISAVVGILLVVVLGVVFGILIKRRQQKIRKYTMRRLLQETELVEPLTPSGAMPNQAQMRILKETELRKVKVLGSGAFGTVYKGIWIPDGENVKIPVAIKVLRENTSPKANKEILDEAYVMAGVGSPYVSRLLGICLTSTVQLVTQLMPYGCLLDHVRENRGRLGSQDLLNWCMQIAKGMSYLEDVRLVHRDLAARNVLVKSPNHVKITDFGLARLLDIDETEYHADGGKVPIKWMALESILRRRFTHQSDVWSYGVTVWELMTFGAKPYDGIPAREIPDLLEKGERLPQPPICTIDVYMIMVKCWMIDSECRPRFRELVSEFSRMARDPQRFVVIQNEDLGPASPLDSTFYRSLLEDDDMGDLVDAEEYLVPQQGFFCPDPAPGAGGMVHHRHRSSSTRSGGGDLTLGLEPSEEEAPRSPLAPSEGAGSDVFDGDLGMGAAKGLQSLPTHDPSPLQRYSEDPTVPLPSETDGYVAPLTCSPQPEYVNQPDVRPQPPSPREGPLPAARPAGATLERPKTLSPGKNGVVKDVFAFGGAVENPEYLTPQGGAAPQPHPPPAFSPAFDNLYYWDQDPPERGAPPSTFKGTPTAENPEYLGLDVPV
HER2YVMA, sequence (P04626 with tags, fused parts or gaps INS775YVMA): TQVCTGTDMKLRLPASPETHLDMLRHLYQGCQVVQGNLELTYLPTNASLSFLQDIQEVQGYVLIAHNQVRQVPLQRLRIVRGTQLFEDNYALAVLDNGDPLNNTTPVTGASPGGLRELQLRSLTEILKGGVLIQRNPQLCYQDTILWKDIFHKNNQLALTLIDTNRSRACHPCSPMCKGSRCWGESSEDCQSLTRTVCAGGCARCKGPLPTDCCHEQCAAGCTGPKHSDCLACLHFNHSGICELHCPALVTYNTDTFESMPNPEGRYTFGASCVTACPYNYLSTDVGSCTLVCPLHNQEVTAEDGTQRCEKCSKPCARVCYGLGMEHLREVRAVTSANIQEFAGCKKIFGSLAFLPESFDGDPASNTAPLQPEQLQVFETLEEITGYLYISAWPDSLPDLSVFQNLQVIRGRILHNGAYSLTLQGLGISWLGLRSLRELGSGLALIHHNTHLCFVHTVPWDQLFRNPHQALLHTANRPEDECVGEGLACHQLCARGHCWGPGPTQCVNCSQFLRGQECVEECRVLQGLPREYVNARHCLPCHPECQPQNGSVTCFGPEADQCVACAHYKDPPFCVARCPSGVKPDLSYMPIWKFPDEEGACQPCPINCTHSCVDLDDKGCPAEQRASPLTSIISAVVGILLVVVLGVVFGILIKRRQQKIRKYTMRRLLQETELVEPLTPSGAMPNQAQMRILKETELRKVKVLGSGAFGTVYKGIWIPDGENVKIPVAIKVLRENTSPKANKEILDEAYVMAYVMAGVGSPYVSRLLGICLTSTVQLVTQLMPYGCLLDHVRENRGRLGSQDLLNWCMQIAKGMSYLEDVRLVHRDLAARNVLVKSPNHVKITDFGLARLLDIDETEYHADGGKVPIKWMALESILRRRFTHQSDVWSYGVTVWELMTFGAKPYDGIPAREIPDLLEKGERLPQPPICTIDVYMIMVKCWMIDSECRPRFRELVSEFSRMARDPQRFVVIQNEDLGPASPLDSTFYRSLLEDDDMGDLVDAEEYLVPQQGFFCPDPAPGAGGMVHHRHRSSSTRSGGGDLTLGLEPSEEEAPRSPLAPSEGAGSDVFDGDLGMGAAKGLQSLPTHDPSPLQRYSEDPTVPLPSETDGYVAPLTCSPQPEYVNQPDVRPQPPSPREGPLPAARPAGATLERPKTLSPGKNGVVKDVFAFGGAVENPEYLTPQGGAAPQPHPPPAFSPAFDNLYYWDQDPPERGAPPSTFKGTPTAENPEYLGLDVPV

What is called pIC50 is the negative decadic logarithm of the IC50, by convention in mol/L. A higher pIC50 goes with a low IC50. By pEC50 is commonly meant the EC50 on a negative log10 scale, so that one unit is a factor of ten. Regarding `Cc1ccc(Oc2ccc(Nc3ncnc4sc5c(c34)C(C)N(C(=O)/C=C/CN(C)C)C5)cc2C)cn1` (stereo not drawn) [Compound 141, (E)-4-(dimethylamino)-1-(5-methyl-4-((3-methyl-4-((6-methylpyridin-3-yl)oxy)phenyl)amino)-5,7-dihydro-6H-pyrrolo[3′,4′:4,5]thieno[2,3-d]pyrimidin-6-yl)but-2-en-1-one], the pIC50 is over 7.00 against HER2 WT, under 5.00 against EGFR WT and over 7.00 at HER2YVMA. For the same compound, at EGFR, the pEC50 is 6.00 to 7.00. In addition, on EGFR, the “Selectivity A431 EC50/BT474 EC50” value was “B (B: ≥ 20 and < 100)”. In addition, the “Selectivity A431 EC50/HEKYVMA EC50” value on EGFR was “B (B: ≥ 20 and < 100)”.

Regarding `Cc1ccc(Oc2ccc(Nc3ncnc4sc5c(c34)CC(C)N(C(=O)C=CCN(C)C)C5C)cc2C)cn1` (single isomer, unassigned) [Compound 161], the pIC50 against HER2 WT was over 7.00. Further, the pIC50 on EGFR WT was under 5.00. Further, at EGFR, the pEC50 was over 7.00; the “Selectivity A431 EC50/BT474 EC50” value was “D (D: ≥ 5 and < 10)”; the “Selectivity A431 EC50/HEKYVMA EC50” value is “E (E: >1 and < 5)”. The pIC50 at HER2YVMA was over 7.00.

As to `Cc1ccc(Oc2ccc(Nc3ncnc4sc5c(c34)CCN(C(=O)/C=C/CN3CC4CCC(C3)O4)C5)cc2C)cn1` [Compound 13], the figures for the pIC50 against HER2 WT, against EGFR WT and against HER2YVMA were over 7.00, under 5.00 and 6.00 to 7.00, respectively. For the same compound, the negative logarithm of the EC50 (pEC50) on EGFR is 6.00 to 7.00. For the same compound, on EGFR, the “Selectivity A431 EC50/BT474 EC50” value is “C (C: ≥ 10 and < 20)”. Moreover, the “Selectivity A431 EC50/HEKYVMA EC50” value on EGFR is “C (C: ≥ 10 and < 20)”.

Take `Cc1ccc(Oc2ccc(Nc3ncnc4sc5c(c34)CCN(C(=O)/C=C/CN3C[C@H]4C[C@@H]3CC4C#N)C5)cc2C)cn1` (stereo partly drawn) [Compound 120]: at HER2 WT, the pIC50 was over 7.00. In addition, the negative logarithm of the IC50 (pIC50) at EGFR WT was under 5.00. Moreover, at EGFR, the pEC50 was 6.00 to 7.00; the “Selectivity A431 EC50/BT474 EC50” value was “B (B: ≥ 20 and < 100)”; the “Selectivity A431 EC50/HEKYVMA EC50” value is “B (B: ≥ 20 and < 100)”. This compound also had a pIC50 against HER2YVMA of over 7.00.

As to `C=CC(=O)N1[C@H](C)Cc2c(sc3ncnc(Nc4ccc(Oc5ccc(C)nc5)c(C)c4)c23)[C@H]1C` (racemic) [Compound 166, 1-(6,8-trans-dimethyl-4-((3-methyl-4-((6-methylpyridin-3-yl)oxy)phenyl)amino)-5,8-dihydropyrido[4′,3′:4,5]thieno[2,3-d]pyrimidin-7(6H)-yl)prop-2-en-1-one], the pIC50 at HER2 WT was 6.00 to 7.00; against EGFR WT, under 5.00; on HER2YVMA, 6.00 to 7.00. In addition, the pEC50 at EGFR was 6.00 to 7.00. On EGFR, the “Selectivity A431 EC50/BT474 EC50” value is “B (B: ≥ 20 and < 100)”. Further, the “Selectivity A431 EC50/HEKYVMA EC50” value on EGFR was “C (C: ≥ 10 and < 20)”.

`Cc1ccc(Oc2ccc(Nc3ncnc4sc5c(c34)CCN(C(=O)/C=C/CN3CCC(O)C(C)(C)C3)C5)cc2C)cn1` (stereo not drawn) [Compound 114] showed a negative-log IC50 (pIC50) on HER2 WT of over 7.00. Also, the pIC50 against EGFR WT was under 5.00. In addition, at EGFR, the pEC50 was 6.00 to 7.00; the “Selectivity A431 EC50/BT474 EC50” value was “B (B: ≥ 20 and < 100)”; the “Selectivity A431 EC50/HEKYVMA EC50” value is “B (B: ≥ 20 and < 100)”. In addition, at HER2YVMA, the pIC50 was over 7.00.

`Cc1ccc(Oc2ccc(Nc3ncnc4sc5c(c34)CCN(C(=O)/C=C/CN3CCOCC3)C5)cc2C)cn1` [Compound 17, (E)-1-(4-((3-Methyl-4-((6-methylpyridin-3-yl)oxy)phenyl)amino)-5,6-dihydropyrido[4′,3′:4,5]thieno[2,3-d]pyrimidin-7(8H)-yl)-4-morpholinobut-2-en-1-one] showed a pIC50 at HER2 WT of over 7.00. Further, the pIC50 against EGFR WT was under 5.00. Moreover, at EGFR, the pEC50 is 6.00 to 7.00; the “Selectivity A431 EC50/BT474 EC50” value is “C (C: ≥ 10 and < 20)”; the “Selectivity A431 EC50/HEKYVMA EC50” value is reported as “A (A: ≥100)”. The pIC50 at HER2YVMA was over 7.00.

As to `Cc1ccc(Oc2ccc(Nc3ncnc4sc5c(c34)C(C)N(C(=O)C=CCN(C)C)C5)cc2C)cn1` (single isomer, unassigned) [Compound 147], on HER2 WT, the negative logarithm of the IC50 (pIC50) was over 7.00. For the same compound, the pIC50 against EGFR WT is under 5.00. For the same compound, on EGFR, the pEC50 was over 7.00; the “Selectivity A431 EC50/BT474 EC50” value was “B (B: ≥ 20 and < 100)”; the “Selectivity A431 EC50/HEKYVMA EC50” value was “D (D: ≥ 5 and < 10)”. The same compound showed a pIC50 on HER2YVMA of over 7.00.
